According to publication PMC12195740, “Discovery of Novel Imidazothiazole-Based Hydroxamic Acid Derivatives as Potent Indoleamine 2,3-Dioxygenase 1 and Histone Deacetylase 6 Dual Inhibitors” (Molecules, 2025):

Experiments:
[1] = biological target: T1, HDAC6 human recombinant enzyme (Homo sapiens, UniProt Q9UBN7); test: HDAC6 enzyme inhibitory activity assay; type: biochemical
T1 sequence (Q9UBN7 1-1215): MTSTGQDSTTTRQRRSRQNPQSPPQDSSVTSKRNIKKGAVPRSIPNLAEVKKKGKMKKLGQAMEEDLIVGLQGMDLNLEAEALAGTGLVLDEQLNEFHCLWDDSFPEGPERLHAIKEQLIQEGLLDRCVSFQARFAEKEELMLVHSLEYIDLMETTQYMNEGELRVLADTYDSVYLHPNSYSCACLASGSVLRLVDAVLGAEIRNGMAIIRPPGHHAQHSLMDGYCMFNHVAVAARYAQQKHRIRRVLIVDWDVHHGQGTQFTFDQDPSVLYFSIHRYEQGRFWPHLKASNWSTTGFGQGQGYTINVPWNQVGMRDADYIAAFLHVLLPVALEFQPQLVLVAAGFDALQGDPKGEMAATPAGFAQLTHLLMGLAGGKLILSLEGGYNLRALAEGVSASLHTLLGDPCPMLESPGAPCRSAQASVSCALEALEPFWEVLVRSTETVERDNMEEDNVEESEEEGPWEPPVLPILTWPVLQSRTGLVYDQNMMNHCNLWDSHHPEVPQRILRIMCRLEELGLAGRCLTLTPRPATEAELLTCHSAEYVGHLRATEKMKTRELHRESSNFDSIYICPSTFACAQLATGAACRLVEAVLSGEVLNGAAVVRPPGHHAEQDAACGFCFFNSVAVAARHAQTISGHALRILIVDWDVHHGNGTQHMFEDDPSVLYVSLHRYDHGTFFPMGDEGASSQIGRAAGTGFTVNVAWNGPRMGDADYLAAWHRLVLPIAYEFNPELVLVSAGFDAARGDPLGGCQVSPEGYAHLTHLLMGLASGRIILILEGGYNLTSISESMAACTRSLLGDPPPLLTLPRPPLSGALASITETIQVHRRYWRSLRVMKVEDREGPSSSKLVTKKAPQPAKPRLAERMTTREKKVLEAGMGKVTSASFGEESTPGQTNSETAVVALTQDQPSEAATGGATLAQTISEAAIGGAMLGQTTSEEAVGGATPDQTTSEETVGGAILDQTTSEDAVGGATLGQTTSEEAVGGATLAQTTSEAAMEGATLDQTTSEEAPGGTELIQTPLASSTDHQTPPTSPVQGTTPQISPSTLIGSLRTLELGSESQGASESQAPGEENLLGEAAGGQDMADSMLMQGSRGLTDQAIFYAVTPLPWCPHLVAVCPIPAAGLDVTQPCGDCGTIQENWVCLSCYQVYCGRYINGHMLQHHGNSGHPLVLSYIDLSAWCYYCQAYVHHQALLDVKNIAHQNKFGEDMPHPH
Description: Section S1. Biological assays
Section S 1.1. HDAC6 enzyme inhibitory activity assay
Preparation of Master Mix. Trichostatin A in DMSO, Fluorogenic HDAC substrate 3, and HDAC6 human recombinant enzyme were diluted to 20 μM, 200 μM, and 7 ng/uL, respectively, using HDAC Assay Buffer.BSA was dissolved in 1 mL of distilled water to make a BSA solution at a concentration of 1 mg/mL. A certain amount of Fluorogenic HDAC substrate 3, BSA and HDAC Assay Buffer were mixed well to make a master mix, and 40 μL of the master mix was added to each well of a 96-well plate. In the drug administration group, 5 μL of Trichostatin A in DMSO and HDAC6 human recombinant enzyme were added to each well. 5 μL of HDAC Assay Buffer and HDAC6 human recombinant enzyme were added to each well of the blank group, and incubated for 30 min at 37 °C. Finally, 50 μL of undiluted HDAC substrate 3, BSA and HDAC Assay Buffer were added to each well. 50 μL of 2x HDAC Developer was added to each well and incubated at room temperature for 15 min. The samples were read in an enzyme marker with an excitation wavelength in the range of 350-380 nm and an emission light in the range of 440-460 nm.
The values of fluorescence intensities were read and the inhibition rate and IC50 were calculated. […]

HDAC11 = biological target: T2, HDAC11 (Homo sapiens, UniProt Q96DB2); test: HDAC isoform selectivity assay, HDAC11; type: biochemical; conditions: read-out: HDAC11 % inhibition rate at 10 μM
T2 sequence (Q96DB2 1-347): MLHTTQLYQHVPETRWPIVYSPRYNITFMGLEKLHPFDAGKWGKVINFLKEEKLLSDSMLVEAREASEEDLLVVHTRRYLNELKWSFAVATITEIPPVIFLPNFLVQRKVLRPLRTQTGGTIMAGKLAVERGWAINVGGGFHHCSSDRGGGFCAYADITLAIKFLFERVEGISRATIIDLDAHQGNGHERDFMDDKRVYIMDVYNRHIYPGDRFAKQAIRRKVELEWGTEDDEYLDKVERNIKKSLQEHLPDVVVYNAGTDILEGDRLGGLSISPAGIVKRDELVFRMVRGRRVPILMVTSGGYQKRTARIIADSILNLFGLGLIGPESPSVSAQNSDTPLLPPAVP

SW480 cells = test: Cell viability (MTT) assay, SW480; conditions: Homo sapiens, SW480, 48 h, read-out: Antiproliferative IC50, SW480
Description: Section S 1.3 Cell viability assays
Cell Bank at the Chinese Academy of Sciences.
DMEM and FBS were obtained from Gibco-Thermo (BRL Co. Ltd., USA).
another 48 h. The cells were stained with 10 μl of MTT at incubator for approximately 4 h. The medium was discarded and replaced by 100 mL DMSO. The O.D. value was read at 570/630 nm with a spectrophotometer.

IC50 [1]: 0.0582 µM | Selectivity Index (SI) = HDAC1 IC50 value/HDAC6 IC50 value ([1]; HDAC1/HDAC6): 18.51 | inhibition at 1 µM ([1]; read-out: HDAC6 Inhibition Rate at 1 μM): 90.5% | inhibition at 10 µM (HDAC11): 24.4% | IC50 (SW480 cells): 23.4 ± 3.86 µM
Compound: O=C(CCCCCCNc1ccc(NC(=O)c2cnc3scc(-c4ccc(Br)cc4)n23)cc1)NO [Compound 10e, 3-(4-Bromophenyl)-N-{4-[(7-(hydroxyamino)-7-oxoheptyl)amino]phenyl}imidazo[2,1-b]thiazole-5-carboxamide]
